Details: 2:1 dmf:h2o

Q: With “1-[(4-Bromophenyl)aminocarbonyl]-2-carboxymethyl-4,5-diphenyl-3-pyrazolidinone and 1-[(4-bromophenyl)aminocarbonyl]-3-carboxymethoxy-4,5-diphenyl-2-pyrazoline [Example 12]” as the substance, how does the “titration pKa” value read?
A: 4.8
